SMILES strings stand for the structures. Activity calls are given as the source filed them. A value given as a limit tells only on which side of the number the result lay.

One test deals with INS1. The experiment in a line: INS-1E survival protection against cytokine death – cell-based, luminescence, retest, dose response (AID 449756).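 Also: cell death triggered by IL-1 beta plus TNF-alpha plus IFN-gamma mixture; protective hits raise ATP signal compared with cytokine alone wells.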 The test is classed as functional. Particulars: Rattus norvegicus.
The target of test [1] is T1, Replicative DNA helicase DnaB (Mycobacterium tuberculosis, UniProt P9WMR3).
T1 sequence (P9WMR3 whole entry): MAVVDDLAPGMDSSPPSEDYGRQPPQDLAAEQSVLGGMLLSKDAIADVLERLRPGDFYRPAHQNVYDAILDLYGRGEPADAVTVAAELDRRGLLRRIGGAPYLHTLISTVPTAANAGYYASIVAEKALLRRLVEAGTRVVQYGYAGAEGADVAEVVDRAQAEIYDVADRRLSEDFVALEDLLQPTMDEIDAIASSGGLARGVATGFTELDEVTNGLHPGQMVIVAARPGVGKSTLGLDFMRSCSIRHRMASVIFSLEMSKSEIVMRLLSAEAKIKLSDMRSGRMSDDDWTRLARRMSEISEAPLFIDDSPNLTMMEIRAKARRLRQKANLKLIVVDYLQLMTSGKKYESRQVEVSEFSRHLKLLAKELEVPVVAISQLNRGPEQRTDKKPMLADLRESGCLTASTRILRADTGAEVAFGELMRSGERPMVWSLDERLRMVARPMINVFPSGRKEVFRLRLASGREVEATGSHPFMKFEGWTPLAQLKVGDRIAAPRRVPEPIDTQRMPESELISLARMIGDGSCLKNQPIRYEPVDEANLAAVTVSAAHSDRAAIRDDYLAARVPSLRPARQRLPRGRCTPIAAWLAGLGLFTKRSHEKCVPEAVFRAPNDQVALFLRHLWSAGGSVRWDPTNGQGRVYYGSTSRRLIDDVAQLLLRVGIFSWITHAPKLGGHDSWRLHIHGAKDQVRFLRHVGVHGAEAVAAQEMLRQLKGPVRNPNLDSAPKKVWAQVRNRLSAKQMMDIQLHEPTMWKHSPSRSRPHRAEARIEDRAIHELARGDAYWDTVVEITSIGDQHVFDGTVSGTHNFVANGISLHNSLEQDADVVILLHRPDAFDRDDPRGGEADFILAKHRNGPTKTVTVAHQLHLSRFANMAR
The experiment in a line: DnaB intein splicing inhibitors, dose response, biochemical, cell-free fluorescence (AID 449749). The class given is functional.

For test [2], the target named is T2, Sentrin-specific protease 8 (Homo sapiens, UniProt Q96LD8).
T2 sequence (Q96LD8 whole entry): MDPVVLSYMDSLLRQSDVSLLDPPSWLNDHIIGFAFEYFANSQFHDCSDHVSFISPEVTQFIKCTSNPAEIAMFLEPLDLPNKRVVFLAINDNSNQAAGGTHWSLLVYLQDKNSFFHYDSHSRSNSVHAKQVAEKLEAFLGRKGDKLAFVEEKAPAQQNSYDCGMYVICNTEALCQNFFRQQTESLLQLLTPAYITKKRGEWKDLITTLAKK
The test is classed as functional.

Test [3] addresses T2, Sentrin-specific protease 8. The class given is functional. This is another data set of the same source.
Test [4] addresses T3, Long-chain-fatty-acid--AMP ligase FadD28 (Mycobacterium tuberculosis, UniProt P9WQ59).
T3 sequence (P9WQ59 whole entry): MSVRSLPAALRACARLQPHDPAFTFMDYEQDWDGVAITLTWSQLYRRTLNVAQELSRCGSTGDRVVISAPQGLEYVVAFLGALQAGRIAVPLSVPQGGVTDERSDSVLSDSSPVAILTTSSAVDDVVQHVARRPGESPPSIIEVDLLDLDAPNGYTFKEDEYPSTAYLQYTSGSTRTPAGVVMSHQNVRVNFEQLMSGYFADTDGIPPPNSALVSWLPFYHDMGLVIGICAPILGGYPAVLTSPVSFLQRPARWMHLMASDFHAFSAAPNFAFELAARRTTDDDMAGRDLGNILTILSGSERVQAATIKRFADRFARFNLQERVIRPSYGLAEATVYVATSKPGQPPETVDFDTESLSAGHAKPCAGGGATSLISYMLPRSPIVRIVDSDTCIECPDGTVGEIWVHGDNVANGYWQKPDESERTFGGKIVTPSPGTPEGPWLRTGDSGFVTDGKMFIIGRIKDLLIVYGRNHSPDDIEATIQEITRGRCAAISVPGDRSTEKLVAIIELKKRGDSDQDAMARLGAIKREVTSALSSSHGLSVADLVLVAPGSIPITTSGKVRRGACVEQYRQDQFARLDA
Description: Fluorescence polarization aasay to screen for inhibitors that compete for the binding of FadD28 to a bisubstrate Measured in Biochemical System Using Plate Reader - 2147-01_Inhibitor_Dose_CherryPick_Activity. The class given is functional, Mycobacterium tuberculosis H37Rv. (Polarisation of emitted light reports the rotation of a fluorescent probe.)

Test [5] addresses Small ubiquitin-related modifier 1 (Homo sapiens, UniProt P63165). Description: SUMO1 protein-protein binding blockers, potency – biochemical, FRET, dose response (AID 624383). The test is classed as functional. Particulars: read-out: IC50_Mean.
In a further test the target is T4, Streptokinase A (Streptococcus pyogenes serotype M1, UniProt P10520).
T4 sequence (P10520 whole entry): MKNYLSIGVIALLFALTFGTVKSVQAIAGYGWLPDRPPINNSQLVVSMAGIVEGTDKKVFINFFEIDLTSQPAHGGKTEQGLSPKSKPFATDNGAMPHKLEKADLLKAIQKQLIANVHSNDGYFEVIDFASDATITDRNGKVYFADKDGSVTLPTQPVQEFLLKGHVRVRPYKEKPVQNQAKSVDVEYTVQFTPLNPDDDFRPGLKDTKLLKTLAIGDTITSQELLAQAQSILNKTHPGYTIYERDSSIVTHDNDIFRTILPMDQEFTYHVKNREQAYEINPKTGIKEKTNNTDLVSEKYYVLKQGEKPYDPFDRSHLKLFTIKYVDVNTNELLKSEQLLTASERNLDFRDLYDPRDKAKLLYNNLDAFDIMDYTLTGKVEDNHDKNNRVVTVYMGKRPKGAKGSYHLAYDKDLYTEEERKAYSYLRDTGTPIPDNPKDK
Description: viability-normalized secreted streptokinase activity reduction – plasminogen activation absorbance, OD405, dose response (AID 1914).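 Also: secreted streptokinase activity via plasminogen activation per viability signal from cell pellet.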 The test is classed as functional, Streptococcus pyogenes M1 GAS.

The subject of the next test is Streptococcus. The experiment in a line: GAS UMAA2166 growth inhibition – luminescence, BacTiterGlo, counter-screen for streptokinase expression inhibitor project, dose response (AID 1915).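 Also: potency for reduction of bacterial viability or growth.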 The test is classed as functional, organism-based. On the technique in general: The purpose of a counterscreen is to sort out artefacts and off-target activity.
Another test deals with T5, Caspase-6 (Homo sapiens, UniProt P55212).
T5 sequence (P55212 whole entry): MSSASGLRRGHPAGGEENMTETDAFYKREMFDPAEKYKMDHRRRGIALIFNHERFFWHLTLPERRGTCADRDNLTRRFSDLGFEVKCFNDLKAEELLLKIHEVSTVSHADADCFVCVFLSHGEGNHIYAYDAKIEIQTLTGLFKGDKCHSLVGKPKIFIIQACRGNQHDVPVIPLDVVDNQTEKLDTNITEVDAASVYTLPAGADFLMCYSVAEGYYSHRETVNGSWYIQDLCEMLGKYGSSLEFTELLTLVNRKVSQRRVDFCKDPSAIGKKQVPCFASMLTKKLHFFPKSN
Description: inhibition of CASP6 peptide cleavage – biochemical, VEID-R110 fluorescence, cherry-pick, dose response (AID 720632).

Small ubiquitin-related modifier 1, sequence (P63165 whole entry): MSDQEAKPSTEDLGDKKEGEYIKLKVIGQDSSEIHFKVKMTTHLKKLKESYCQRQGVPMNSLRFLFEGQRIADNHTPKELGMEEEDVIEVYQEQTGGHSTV

In general, AC50 refers to the concentration giving half of the maximal activity seen. For `Cc1oc2c(c1C(=O)c1ccccc1)C(=O)C(=O)c1ccccc1-2`, the AC50 in the test with INS1 was 2.71 µM (active).

With `O=C1CCCC2=C1C1(O)C(=O)c3ccccc3C1(O)O2` (stereo not drawn), in test [1], the AC50 was 5.49 µM (active). Moreover, the values for the IC50 in test [2] and in test [3] were 2.52 µM (active) and 6.65 µM (active), respectively.

In the case of `Nc1ccc2nc3c(O)nc(S)nc3nc2c1`, the AC50 in test [4] is 46.1 µM (active). The IC50 in [5] is 17.5 µM (active).

By EC50 is commonly meant the concentration needed to bring the measured effect to its halfway point. In the case of `CCN1/C(=C/c2ccc3cc(C)ccc3[n+]2CC)Sc2cc(C)c(C)cc21`, the EC50 is > 150 µM (not active) at Streptokinase A and 8.85 µM (active) in the test on Streptococcus.

For the compound `COc1cc(NCCCNC(C)C)c2nccc(C)c2c1`, the IC50 in test [2] is 3.89 µM (active); in test [3], 1.09 µM (active). The AC50 on Caspase-6 was 33.5 µM (active).

Regarding `CSc1ccc(C=NNc2ccc(S(=O)(=O)Nc3ccccc3C(=O)O)cc2[N+](=O)[O-])cc1`, the IC50 in test [5] is 50.8 µM (inactive). Moreover, the AC50 on Caspase-6 is 6.66 µM (active).

As to `CC(/C=C1\SC(=S)N(NS(=O)(=O)c2ccccc2)C1=O)=C\c1ccccc1`, the EC50 at Streptokinase A is 21.4 µM (active); in the test on Streptococcus it was > 150 µM (not active). Further, the AC50 in test [4] is > 100 µM (inactive).

For `O=C1C(Cl)=C(NCCN2CCCCC2)C(=O)c2ccccc21`, the results for the AC50 (in [1]; in the test with INS1) were 14 µM (active) and 4.41 µM (active), respectively.

For the origin of these results see ChEMBL document CHEMBL1201862, “PubChem BioAssay data set” (2004).
